Data taken from US20250059231A1, “Protease inhibitors” (priority 2021, published 2025).
Like-named read-outs stand apart in the source and are kept apart here. Where a SMILES comes first, the peptide text is derived from it. [ ]: non-standard residue; d: D form. The star is where a group is joined. Arachidoyl = CCCCCCCCCCCCCCCCCCCC(=O)*; Palmitoyl = CCCCCCCCCCCCCCCC(=O)*; hPhe = N[C@@H](CCc1ccccc1)C(=O)O; β3hK = NCCCC[C@H](N)CC(=O)O

Columns and labels:
human Trypsin = human Trypsin (Homo sapiens, UniProt P07477); test: Selectivity screening, human serine protease trypsin; type: biochemical; settings: read-out: inhibition of human Trypsin
Experimental: (§1) By catalytic activity of the protease, the cleaved substrate results in increased fluorescence that can be monitored using a BMG Labtech Fluostar OPTIMA Microtiter fluorescence plate reader (excitation wavelength of 320 nm and a monitored emission wavelength of 405 nm). Dilutions were made starting from 10 mM stock solutions in DMSO and final concentrations were measured in triplicates. The inhibitors were preincubated for 15 min with DENV protease (100 nM) in the assay buffer (50 mM Tris-HCl pH 9.0, ethylene glycol (10% v/v), and 0.0016% Brij 58). The enzymatic reaction was initiated by the addition of the FRET substrate (final concentration 50 μM) to obtain a final assay volume of 100 μL per well. The enzymatic activity was monitored for 15 min and determined as a slope of relative fluorescence units per second (RFU/s) for each concentration. The mean of the triplicates were plotted against the corresponding concentration in CDDVault to determine the IC50-values. Analogous procedures were used to determine the inhibitory potency on WNV (Kühl et al., J. Med. Chem. 2020, 63 (15): 8179-8197) and ZIKA protease (Nitsche et al., ACS Med. Chem. Lett. 2019 Feb. 14; 10 (2): 168-174). For selectivity screening of active candidates, similar biochemical assays with human serine proteases trypsin (Weigel et al., J. Med. Chem. 2015, 58 (19), 7719-7733.) and/or thrombin (Nitsche et al., J. Med. Chem. 2013, 56 (21), 8389-8403) were used.

WNV protease [1] = target: T1, WNV protease (West Nile virus, UniProt P06935); test: WNV protease assay (analogous procedure); type: biochemical
T1 construct: a trypsin-like serine protease domain in the N-terminal region of the flaviviral NS3 proteins
Experimental: as §1

human Thrombin = human Thrombin (Homo sapiens, UniProt P00734); test: Selectivity screening, human serine protease thrombin; type: biochemical; settings: read-out: inhibition of human Thrombin
Experimental: as §1

ZIKA protease = target: T2, ZIKA protease (Zika virus, UniProt Q32ZE1); test: biochemical; settings: for inhibition at 50 µM / inhibition at 1 µM: read-out: inhibition of ZIKV
T2 construct: a trypsin-like serine protease domain in the N-terminal region of the flaviviral NS3 proteins
Experimental: as §1

DENV protease = target: T3, DENV protease (Dengue virus type 2, UniProt P29990); test: biochemical; settings: read-out: inhibition of DENV
T3 construct: The virus-encoded dengue protease comprises the amino-terminal 180 amino acids of NS3 (NS3pro) of the polyprotein
Summary of the method: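 DENV protease (100 nM) was pre-incubated 15 min with inhibitors in 50 mM Tris-HCl pH 9.0, 10% ethylene glycol, 0.0016% Brij 58. FRET substrate (50 μM final) started the reaction, monitored 15 min as RFU/s slope. IC50 came from triplicate means versus concentration.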

WNV protease [2] = target: T1, WNV protease; test: WNV protease assay (analogous procedure); type: biochemical; settings: read-out: IC50 for WNNV

T1 sequence (P06935 1424-1463): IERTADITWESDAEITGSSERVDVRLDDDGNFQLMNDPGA
T1 sequence (P06935 1502-1679): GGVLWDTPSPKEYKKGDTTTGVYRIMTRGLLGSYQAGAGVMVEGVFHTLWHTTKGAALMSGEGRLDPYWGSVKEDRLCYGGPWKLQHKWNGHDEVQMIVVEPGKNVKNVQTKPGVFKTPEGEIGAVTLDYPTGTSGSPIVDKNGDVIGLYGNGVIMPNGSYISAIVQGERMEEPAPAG
T3 sequence (P29990 1398-1437): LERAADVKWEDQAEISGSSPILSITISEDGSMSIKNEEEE
T3 sequence (P29990 1476-1653): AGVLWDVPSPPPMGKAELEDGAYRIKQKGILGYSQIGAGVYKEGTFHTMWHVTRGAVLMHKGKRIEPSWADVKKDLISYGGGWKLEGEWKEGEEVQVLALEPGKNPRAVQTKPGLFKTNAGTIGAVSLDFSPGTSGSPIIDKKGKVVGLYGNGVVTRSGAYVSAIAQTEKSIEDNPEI
T2 sequence (Q32ZE1 1499-1676): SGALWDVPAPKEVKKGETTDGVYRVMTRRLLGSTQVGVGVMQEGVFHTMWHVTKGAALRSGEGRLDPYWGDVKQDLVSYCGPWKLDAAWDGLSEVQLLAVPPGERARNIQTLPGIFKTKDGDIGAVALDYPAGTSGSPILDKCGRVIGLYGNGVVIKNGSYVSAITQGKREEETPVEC
T2 sequence (Q32ZE1 1421-1460): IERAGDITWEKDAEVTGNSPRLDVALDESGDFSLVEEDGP

Structure (SMILES) | inhibition at 5 µM (human Trypsin) | inhibition at 25 µM (human Trypsin) | inhibition at 50 µM (WNV protease [1]) | inhibition at 5 µM (human Thrombin) | IC50 (ZIKA protease) | inhibition at 50 µM (ZIKA protease) | inhibition at 50 µM (DENV protease) | IC50 (WNV protease [2]) | inhibition at 5 µM (human Trypsin; at 5 μM) | inhibition at 25 µM (human Trypsin; at 25 μM) | inhibition at 5 µM (human Thrombin; at 5 μM) | inhibition at 50 µM (ZIKA protease; at 50 μM) | inhibition at 1 µM (ZIKA protease; at 1 μM) | inhibition at 1 µM (DENV protease; at 1 μM) | inhibition at 1 µM (ZIKA protease) | inhibition at 1 µM (DENV protease) | inhibition at 1 µM (WNV protease [1]; at 1 μM, read-out: inhibition of WNNV)
CCCCCCCCCCCCCCCC(=O)N[C@@H](CCCCN)C(=O)N[C@@H](C)C(=O)N[C@@H](C)C(=O)N[C@H](CCc1ccccc1)C(=O)C(N)=O [compound 5] | < 10% | < 20% | ≥ 25% | < 5% | ≤ 25 µM | ≥ 65% | ≥ 25% | ≤ 40 µM |  |  |  |  |  |  |  |  | 
CCCCCCCCCCCCCCCC(=O)N[C@@H](CCCCN)C(=O)N1CCC[C@H]1C(=O)N[C@@H](C)C(=O)N[C@@H](CCc1ccccc1)C(=O)C(N)=O [compound 6] | < 10% | < 20% | ≥ 25% | < 5% | ≤ 25 µM | ≥ 65% | ≥ 25% | ≤ 40 µM |  |  |  |  |  |  |  |  | 
CCCCCCCCCCCCCCCC(=O)N[C@H](C)C(=O)N1C[C@H](Oc2ccncc2)C[C@H]1C(=O)N[C@H](C)C(=O)N[C@H](CCCCN)C(N)=O [compound 8] |  |  | ≥ 25% |  | ≤ 25 µM |  | ≥ 25% | ≤ 40 µM | < 10% | < 20% | < 5% | ≥ 65% |  |  |  |  | 
CCCCCCCCCCCCCCCC(=O)N[C@@H](CCCCN)C(=O)N1CCC[C@H]1C(=O)N[C@@H](Cc1cnc[nH]1)C(=O)N[C@@H](CCc1ccccc1)C(N)=O [compound 11] (Palmitoyl-KPH[hPhe]-NH2) |  |  | ≥ 25% |  | ≤ 25 µM |  | ≥ 25% | ≤ 40 µM | < 10% | < 20% | < 5% | ≥ 65% | ≥ 10% |  |  |  | 
CCCCCCCCCCCCCCCC(=O)N[C@@H](CCCCN)C(=O)N[C@@H](C)C(=O)N[C@@H](C)C(=O)N[C@@H](Cc1c[nH]c2ccccc12)C(N)=O [compound 92] (Palmitoyl-KAAW-NH2) |  |  | ≥ 25% |  | ≤ 25 µM |  | ≥ 25% | ≤ 40 µM | < 10% | < 20% | < 5% | ≥ 65% | ≥ 10% |  |  |  | 
CCCCCCCCCCCCCCCC(=O)N[C@H](CCCCN)C(=O)N[C@@H](C)C(=O)N[C@@H](C)C(=O)N[C@@H](CCCCN)C(N)=O [compound 115] (Palmitoyl-[dK]AAK-NH2) |  |  | ≥ 25% |  | ≤ 25 µM |  | ≥ 25% | ≤ 40 µM | < 10% | < 20% | < 5% | ≥ 65% | ≥ 10% |  |  |  | 
CCCCCCCCCCCCCCCC(=O)N[C@@H](CCCCN)CC(=O)N1CCC[C@H]1C(=O)N[C@@H](C)C(=O)N[C@@H](Cc1ccccc1)C(N)=O [compound 116] (Palmitoyl-[β3hK]PAF-NH2) |  |  | ≥ 25% |  | ≤ 25 µM |  | ≥ 25% | ≤ 40 µM | < 10% | < 20% | < 5% | ≥ 65% | ≥ 10% |  |  |  | 
CCCCCCCCCCCCCCCC(=O)N[C@@H](CCCCN)CC(=O)N1CCC[C@H]1C(=O)N[C@@H](C)C(=O)N[C@@H](CCc1ccccc1)C(N)=O [compound 117] (Palmitoyl-[β3hK]PA[hPhe]-NH2) |  |  | ≥ 25% |  | ≤ 25 µM |  | ≥ 25% | ≤ 40 µM | < 10% | < 20% | < 5% | ≥ 65% | ≥ 10% |  |  |  | 
CCCCCCCCCCCCCCCC(=O)N[C@@H](CCCCN)CN1CCC[C@H]1C(=O)N[C@@H](C)C(=O)N[C@H](Cc1c[nH]c2ccccc12)C(N)=O [compound 122] |  |  | ≥ 25% |  | ≤ 25 µM |  | ≥ 25% | ≤ 40 µM | < 10% | < 20% | < 5% | ≥ 65% |  |  |  |  | 
CCCCCCCCCCCCCCCC(=O)N[C@@H](CCCCN)C(=O)N1CCC[C@H]1C(=O)N[C@@H](C)C(=O)N[C@H](Cc1ccccc1)C(N)=O [compound 123] (Palmitoyl-KPA[dF]-NH2) |  |  | ≥ 25% |  | ≤ 25 µM |  | ≥ 25% | ≤ 40 µM | < 10% | < 20% | < 5% | ≥ 65% | ≥ 10% |  |  |  | 
CCCCCCCCCCCCCCCCCCCC(=O)N[C@@H](CCCCN)C(=O)N1CCC[C@H]1C(=O)N[C@@H](C)C(=O)N[C@@H](CCCCN)C(N)=O [compound 125] (Arachidoyl-KPAK-NH2) |  |  | ≥ 25% |  | ≤ 25 µM |  | ≥ 25% | ≤ 40 µM | < 10% | < 20% | < 5% | ≥ 65% | ≥ 10% | ≥ 20% |  |  | 
CCCCCCCCCCCCCCCC(=O)N[C@@H](CCCCN)C(=O)N1CCC[C@H]1C(=O)N[C@@H](C)C(=O)N[C@@H](C(N)=O)c1ccc(OCc2ccccc2)cc1 [compound 129] | < 10% | < 20% | ≥ 25% | < 5% | ≤ 25 µM | ≥ 65% | ≥ 25% | ≤ 40 µM |  |  |  |  |  |  | ≥ 10% | ≥ 20% | 
CCCCCCCCCCCCCCCC(=O)N[C@@H](CCCCN)C(=O)N[C@@H](C)C(=O)N[C@@H](C)C(=O)N[C@@H](CCCCN)C(=O)c1ccccc1 [compound 137] | < 10% | < 20% | ≥ 25% | < 5% | ≤ 25 µM | ≥ 65% | ≥ 25% | ≤ 40 µM |  |  |  |  |  |  | ≥ 10% | ≥ 20% | ≥ 10%
CCCCCCCCCCCCCCCC(=O)N[C@@H](CCCCN)C(=O)N[C@@H](C)C(=O)N[C@@H](C)C(=O)N[C@@H](Cc1cnc[nH]1)C(N)=O [compound 168] (Palmitoyl-KAAH-NH2) |  |  | ≥ 25% |  | ≤ 25 µM |  | ≥ 25% | ≤ 40 µM | < 10% | < 20% | < 5% | ≥ 65% | ≥ 10% |  |  |  | 
CCCCCCCCCCCCCCCC(=O)N[C@@H](CCCCN)C(=O)N[C@@H](C)C(=O)N[C@@H](CCCCN)C(=O)c1ccccc1 [compound 174] | < 10% | < 20% | ≥ 25% | < 5% |  |  | ≥ 25% | ≤ 40 µM |  |  |  |  |  |  |  |  | 
CCCCCCCCCCCCCCCC(=O)N[C@@H](CCCCN)C(=O)N[C@@H](C)C(=O)N[C@@H](C)C(=O)N[C@@H](C=O)CCCCN [compound 181] (Palmitoyl-KAA[dK]-aldehyde) |  |  | ≥ 25% |  |  |  | ≥ 25% | ≤ 40 µM |  | < 20% | < 5% |  |  |  |  |  | 
CCCCCCCCCCCCCCCC(=O)N[C@H](CCCCN)C(=O)N[C@@H](C)C(=O)N[C@@H](Cc1ccccc1)C(N)=O [compound 190] (Palmitoyl-[dK]-Ala-Phe-NH2) |  |  | ≥ 25% |  |  |  | ≥ 25% | ≤ 40 µM | < 10% | < 20% | < 5% |  |  |  |  |  | 
